In doi:10.1101/2021.09.30.462449v1 (biorxiv, 2021):

Columns and labels:
Assay in all cases: biochemical
Settings in all cases: read-out: % inhibition mean (Lanthascreen)
WNK1 = WNK1 (Homo sapiens, UniProt Q9H4A3)
ZAK = ZAK (Homo sapiens, UniProt Q9NYL2)
ACVR2B = ACVR2B (Homo sapiens, UniProt Q13705)
CDC7/DBF4 = CDC7/DBF4 (Homo sapiens, UniProt O00311)
AAK1 = AAK1 (Homo sapiens, UniProt Q2M2I8)
HUNK = HUNK (Homo sapiens, UniProt P57058)
CDK2/cyclin A1 = CDK2/cyclin A1 (Homo sapiens, UniProt P24941)
TESK1 = TESK1 (Homo sapiens, UniProt Q15569)
TLK2 = TLK2 (Homo sapiens, UniProt Q86UE8)
TNIK = TNIK (Homo sapiens, UniProt Q9UKE5)
STK16 (PKL12) = STK16 (PKL12) (Homo sapiens, UniProt O75716)
EPHA7 = EPHA7 (Homo sapiens, UniProt Q15375)
SLK = SLK (Homo sapiens, UniProt Q9H2G2)
DYRK2 = DYRK2 (Homo sapiens, UniProt Q92630)
MASTL = MASTL (Homo sapiens, UniProt Q96GX5)
LATS2 = LATS2 (Homo sapiens, UniProt Q9NRM7)
MYO3A (MYO3 alpha) = MYO3A (MYO3 alpha) (Homo sapiens, UniProt Q8NEV4)
DAPK2 = DAPK2 (Homo sapiens, UniProt Q9UIK4)
EPHA6 = EPHA6 (Homo sapiens, UniProt Q9UF33)
MAP3K2 (MEKK2) = MAP3K2 (MEKK2) (Homo sapiens, UniProt Q9Y2U5)
AXL R499C = AXL R499C (Homo sapiens, UniProt P30530, R499C)
KIT D820E = KIT D820E (Homo sapiens, UniProt P10721, D820E)
MAPK9 (JNK2) = MAPK9 (JNK2) (Homo sapiens, UniProt P45984)
NUAK2 = NUAK2 (Homo sapiens, UniProt Q9H093)
KIT D816H = KIT D816H (Homo sapiens, UniProt P10721, D816H)
DDR2 = DDR2 (Homo sapiens, UniProt Q16832)
ULK2 = ULK2 (Homo sapiens, UniProt Q8IYT8)
KIT A829P = KIT A829P (Homo sapiens, UniProt P10721, A829P)
CASK = CASK (Homo sapiens, UniProt O14936)

Sequence of DDR2 (Q16832 whole entry): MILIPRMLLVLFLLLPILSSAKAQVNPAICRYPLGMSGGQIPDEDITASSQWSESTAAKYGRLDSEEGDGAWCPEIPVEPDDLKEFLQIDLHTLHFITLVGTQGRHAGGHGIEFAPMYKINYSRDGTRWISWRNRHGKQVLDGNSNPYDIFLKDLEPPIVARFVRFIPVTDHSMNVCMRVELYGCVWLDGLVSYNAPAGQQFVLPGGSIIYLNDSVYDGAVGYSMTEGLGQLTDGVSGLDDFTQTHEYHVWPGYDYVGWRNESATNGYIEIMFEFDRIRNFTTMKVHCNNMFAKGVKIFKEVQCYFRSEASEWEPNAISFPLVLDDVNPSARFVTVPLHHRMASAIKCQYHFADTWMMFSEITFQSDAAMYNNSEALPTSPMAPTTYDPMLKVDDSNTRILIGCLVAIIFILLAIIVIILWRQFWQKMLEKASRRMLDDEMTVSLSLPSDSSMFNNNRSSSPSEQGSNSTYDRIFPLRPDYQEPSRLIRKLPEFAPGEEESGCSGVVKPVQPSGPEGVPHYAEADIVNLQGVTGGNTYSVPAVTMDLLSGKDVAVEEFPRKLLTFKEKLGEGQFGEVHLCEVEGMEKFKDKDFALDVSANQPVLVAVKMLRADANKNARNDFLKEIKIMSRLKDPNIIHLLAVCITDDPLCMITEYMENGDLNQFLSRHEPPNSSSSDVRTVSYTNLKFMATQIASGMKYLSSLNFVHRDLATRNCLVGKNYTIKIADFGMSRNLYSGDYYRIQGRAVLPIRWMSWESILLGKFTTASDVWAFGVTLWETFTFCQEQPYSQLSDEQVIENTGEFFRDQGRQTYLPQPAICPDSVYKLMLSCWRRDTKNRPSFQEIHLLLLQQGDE
Sequence of SLK (Q9H2G2 whole entry): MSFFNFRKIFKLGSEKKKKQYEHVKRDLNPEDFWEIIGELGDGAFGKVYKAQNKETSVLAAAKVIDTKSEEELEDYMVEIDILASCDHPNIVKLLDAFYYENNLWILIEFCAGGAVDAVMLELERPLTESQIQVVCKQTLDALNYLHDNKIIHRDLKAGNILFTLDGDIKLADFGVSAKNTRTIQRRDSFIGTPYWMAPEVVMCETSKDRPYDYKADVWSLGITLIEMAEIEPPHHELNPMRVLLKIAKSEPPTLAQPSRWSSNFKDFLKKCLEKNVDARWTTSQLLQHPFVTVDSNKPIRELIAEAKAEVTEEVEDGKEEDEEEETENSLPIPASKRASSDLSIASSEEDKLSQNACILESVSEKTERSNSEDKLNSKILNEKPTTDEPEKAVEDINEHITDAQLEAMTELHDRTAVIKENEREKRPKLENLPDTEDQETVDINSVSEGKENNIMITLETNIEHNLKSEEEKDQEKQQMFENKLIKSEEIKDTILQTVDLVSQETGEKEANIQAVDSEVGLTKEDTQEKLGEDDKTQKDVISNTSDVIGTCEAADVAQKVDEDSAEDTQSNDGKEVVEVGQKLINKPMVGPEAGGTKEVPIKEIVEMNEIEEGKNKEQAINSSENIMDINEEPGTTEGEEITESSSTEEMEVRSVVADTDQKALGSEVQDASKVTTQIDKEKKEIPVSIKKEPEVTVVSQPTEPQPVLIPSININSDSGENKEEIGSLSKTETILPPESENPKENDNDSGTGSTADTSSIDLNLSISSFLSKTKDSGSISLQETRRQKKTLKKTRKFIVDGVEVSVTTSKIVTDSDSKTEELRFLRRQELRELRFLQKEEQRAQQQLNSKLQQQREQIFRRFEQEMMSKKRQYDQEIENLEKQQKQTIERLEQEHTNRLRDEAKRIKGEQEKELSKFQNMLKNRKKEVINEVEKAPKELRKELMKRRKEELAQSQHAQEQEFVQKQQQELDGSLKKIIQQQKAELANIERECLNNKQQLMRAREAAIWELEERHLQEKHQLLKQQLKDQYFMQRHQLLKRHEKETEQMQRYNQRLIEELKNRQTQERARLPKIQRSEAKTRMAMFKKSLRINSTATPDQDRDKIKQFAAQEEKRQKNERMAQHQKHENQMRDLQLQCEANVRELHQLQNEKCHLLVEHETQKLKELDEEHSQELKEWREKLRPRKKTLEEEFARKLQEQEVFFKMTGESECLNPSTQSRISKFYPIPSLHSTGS
Sequence of ZAK (Q9NYL2 whole entry): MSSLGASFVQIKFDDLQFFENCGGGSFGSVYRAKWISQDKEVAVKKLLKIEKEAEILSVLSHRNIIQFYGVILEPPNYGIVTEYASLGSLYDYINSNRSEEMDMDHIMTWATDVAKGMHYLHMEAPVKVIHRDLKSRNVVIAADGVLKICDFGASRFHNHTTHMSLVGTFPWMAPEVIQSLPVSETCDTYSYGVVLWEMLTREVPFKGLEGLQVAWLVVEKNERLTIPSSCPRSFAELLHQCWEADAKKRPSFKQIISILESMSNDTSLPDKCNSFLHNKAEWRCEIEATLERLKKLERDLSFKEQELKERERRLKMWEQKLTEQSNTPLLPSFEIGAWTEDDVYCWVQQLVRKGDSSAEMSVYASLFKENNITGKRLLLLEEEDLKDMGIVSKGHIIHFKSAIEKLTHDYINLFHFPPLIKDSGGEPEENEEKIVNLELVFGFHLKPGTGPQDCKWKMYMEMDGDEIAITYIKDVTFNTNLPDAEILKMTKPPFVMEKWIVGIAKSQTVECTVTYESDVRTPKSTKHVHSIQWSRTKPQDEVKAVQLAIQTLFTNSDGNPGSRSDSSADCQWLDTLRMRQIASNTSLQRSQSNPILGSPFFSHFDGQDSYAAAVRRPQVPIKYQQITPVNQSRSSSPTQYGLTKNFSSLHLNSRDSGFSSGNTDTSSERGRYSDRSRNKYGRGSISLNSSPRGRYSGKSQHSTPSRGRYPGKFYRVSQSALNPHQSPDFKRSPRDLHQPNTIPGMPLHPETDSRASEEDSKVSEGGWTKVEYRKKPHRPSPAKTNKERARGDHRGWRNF
Sequence of EPHA7 (Q15375 whole entry): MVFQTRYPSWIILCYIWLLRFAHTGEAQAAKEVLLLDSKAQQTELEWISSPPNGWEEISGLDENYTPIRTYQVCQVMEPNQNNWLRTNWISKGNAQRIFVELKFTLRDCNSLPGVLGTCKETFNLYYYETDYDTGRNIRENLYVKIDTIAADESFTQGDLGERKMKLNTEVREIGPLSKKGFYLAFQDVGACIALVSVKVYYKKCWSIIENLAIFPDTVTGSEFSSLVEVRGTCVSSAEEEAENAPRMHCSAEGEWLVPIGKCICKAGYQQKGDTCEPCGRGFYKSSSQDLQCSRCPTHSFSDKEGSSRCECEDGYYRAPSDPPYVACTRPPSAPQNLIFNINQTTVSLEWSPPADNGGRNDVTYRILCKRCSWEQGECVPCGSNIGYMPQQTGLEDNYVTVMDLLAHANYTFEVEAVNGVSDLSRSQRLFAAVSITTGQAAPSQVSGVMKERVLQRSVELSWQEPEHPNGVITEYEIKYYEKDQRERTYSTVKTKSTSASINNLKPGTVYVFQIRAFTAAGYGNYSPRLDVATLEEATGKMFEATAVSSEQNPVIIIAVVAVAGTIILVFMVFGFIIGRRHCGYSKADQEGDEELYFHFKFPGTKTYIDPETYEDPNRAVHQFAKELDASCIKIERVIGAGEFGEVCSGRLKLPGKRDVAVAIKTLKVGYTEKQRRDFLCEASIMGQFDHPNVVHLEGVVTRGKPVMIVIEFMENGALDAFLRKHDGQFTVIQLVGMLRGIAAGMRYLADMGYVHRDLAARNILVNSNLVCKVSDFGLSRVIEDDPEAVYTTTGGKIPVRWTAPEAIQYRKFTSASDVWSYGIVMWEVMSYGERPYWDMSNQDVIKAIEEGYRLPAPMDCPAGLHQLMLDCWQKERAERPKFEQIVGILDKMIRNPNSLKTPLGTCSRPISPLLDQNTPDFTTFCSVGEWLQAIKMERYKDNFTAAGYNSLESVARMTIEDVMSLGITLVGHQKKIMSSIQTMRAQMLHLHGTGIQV
Sequence of TLK2 (Q86UE8 whole entry): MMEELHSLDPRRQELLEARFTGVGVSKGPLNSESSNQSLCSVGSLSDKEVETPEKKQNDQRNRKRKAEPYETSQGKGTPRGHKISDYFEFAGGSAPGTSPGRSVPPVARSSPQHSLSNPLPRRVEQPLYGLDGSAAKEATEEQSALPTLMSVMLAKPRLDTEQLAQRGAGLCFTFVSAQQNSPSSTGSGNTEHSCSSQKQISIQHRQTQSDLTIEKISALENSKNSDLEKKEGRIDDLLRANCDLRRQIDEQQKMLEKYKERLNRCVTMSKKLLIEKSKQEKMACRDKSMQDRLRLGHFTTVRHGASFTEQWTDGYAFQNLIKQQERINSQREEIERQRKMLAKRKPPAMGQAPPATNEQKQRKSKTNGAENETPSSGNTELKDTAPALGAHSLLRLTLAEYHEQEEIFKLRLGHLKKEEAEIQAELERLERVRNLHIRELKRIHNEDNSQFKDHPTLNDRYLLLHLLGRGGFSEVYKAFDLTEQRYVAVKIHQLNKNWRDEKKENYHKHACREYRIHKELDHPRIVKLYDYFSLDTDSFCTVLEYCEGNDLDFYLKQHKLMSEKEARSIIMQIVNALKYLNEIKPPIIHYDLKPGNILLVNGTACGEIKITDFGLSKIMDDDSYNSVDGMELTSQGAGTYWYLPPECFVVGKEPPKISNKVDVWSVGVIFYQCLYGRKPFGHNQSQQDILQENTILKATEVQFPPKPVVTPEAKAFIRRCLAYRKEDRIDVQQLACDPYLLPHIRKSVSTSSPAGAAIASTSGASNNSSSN
Sequence of MAPK9 (JNK2) (P45984 whole entry): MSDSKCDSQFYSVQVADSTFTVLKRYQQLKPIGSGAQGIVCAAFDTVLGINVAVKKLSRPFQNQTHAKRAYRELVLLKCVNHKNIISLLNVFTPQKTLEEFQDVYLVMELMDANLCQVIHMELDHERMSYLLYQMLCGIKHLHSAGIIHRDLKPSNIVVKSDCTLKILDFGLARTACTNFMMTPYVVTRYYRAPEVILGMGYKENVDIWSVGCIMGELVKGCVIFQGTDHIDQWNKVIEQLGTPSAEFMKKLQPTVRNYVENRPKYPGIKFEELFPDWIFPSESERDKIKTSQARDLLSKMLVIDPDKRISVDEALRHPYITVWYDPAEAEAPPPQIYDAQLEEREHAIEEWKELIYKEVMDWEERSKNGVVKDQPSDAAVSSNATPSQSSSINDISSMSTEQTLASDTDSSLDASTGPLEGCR

Work on COc1ccc2nc3cc(Cl)ccc3c(Nc3cc(CN4CCCC4)c(O)c(CN4CCCC4)c3)c2n1 [Pyronaridine, 4-[(7-Chloro-2-methoxybenzo[b][1,5]naphthyridin-10-yl)amino]-2,6-bis(1-pyrrolidinylmethyl)phenol phosphate (1:4)] yielded an inhibition at 1 µM (WNK1) of 4%, an inhibition at 1 µM (ZAK) of 0% and an inhibition at 1 µM (ACVR2B) of 8%. The inhibition at 1 µM (CDC7/DBF4) was -6%, the inhibition at 1 µM (AAK1) was 0% and the inhibition at 1 µM (HUNK) was -1%. The inhibition at 1 µM (CDK2/cyclin A1) was 5%, the inhibition at 1 µM (TESK1) was -2% and the inhibition at 1 µM (TLK2) was -2%. For the same molecule, the inhibition at 1 µM (TNIK) was -1%, the inhibition at 1 µM (STK16 (PKL12)) was 5% and the inhibition at 1 µM (EPHA7) was -3%. It also gave an inhibition at 1 µM (SLK) of -1%, an inhibition at 1 µM (DYRK2) of -7% and an inhibition at 1 µM (MASTL) of 3%. It also gave an inhibition at 1 µM (LATS2) of -4%, an inhibition at 1 µM (MYO3A (MYO3 alpha)) of -6% and an inhibition at 1 µM (DAPK2) of -6%. For the same molecule, the inhibition at 1 µM (EPHA6) was -3%, the inhibition at 1 µM (MAP3K2 (MEKK2)) was 7% and the inhibition at 1 µM (AXL R499C) was 3%. The inhibition at 1 µM (KIT D820E) was -4%, the inhibition at 1 µM (MAPK9 (JNK2)) was 6% and the inhibition at 1 µM (NUAK2) was 2%. It also gave an inhibition at 1 µM (KIT D816H) of -7%, an inhibition at 1 µM (DDR2) of 0% and an inhibition at 1 µM (ULK2) of 2%. It also gave an inhibition at 1 µM (KIT A829P) of -9% and an inhibition at 1 µM (CASK) of 2%.
